# Measurements published in PMC8185074, “Anchor extension: a structure-guided approach to design cyclic peptides targeting enzyme active sites” (Nature Communications, 2021).
# Peptide text beside a SMILES is read from it.
# Legend:
# Type in all cases: biochemical
# [1] = molecular target: T1, HDAC2 (Homo sapiens, UniProt Q92769); assay: Initial HDAC2 IC50 estimate (BPS Biosciences HDAC fluorogenic assay kit); details: Supplementary Dataset 2; read-out: HDAC2 activity (initial activity)
# T1 construct: purchased Reaction Biology Corporation (assay run by the CRO)
# T1 sequence (Q92769 whole entry): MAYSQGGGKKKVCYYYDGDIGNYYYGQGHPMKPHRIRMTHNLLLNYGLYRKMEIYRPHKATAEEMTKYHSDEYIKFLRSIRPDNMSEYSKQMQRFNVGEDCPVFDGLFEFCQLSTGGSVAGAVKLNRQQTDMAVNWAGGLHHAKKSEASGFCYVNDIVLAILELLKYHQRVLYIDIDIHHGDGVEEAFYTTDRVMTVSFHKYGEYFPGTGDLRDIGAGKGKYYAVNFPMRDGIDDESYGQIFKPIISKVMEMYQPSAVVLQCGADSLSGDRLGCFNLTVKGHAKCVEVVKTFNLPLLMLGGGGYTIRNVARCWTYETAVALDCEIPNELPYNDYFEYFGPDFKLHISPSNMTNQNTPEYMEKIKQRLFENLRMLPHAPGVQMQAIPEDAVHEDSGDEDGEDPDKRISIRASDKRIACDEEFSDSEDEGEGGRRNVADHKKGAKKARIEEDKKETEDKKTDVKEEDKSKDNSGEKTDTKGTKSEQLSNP
# Method in brief: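 Inhibition measured by kit-based fluorogenic HDAC activity assays, with each point in duplicate or triplicate. Values come from a full 1 µM–100 pM series (1:10 steps) or are range estimates from just 20 nM and 200 nM.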
# [2] = molecular target: T1, HDAC2; assay: HDAC2 inhibition, full IC50 measurement (Reaction Biology; fluorogenic p53 peptide RHKK(Ac)AMC)
# Method in brief: (§1)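 Inhibitory peptides were acoustically dispensed with enzyme, then substrate added; 1 h at 30 °C. Developer stopped reaction; plateau endpoint fluorescence (360/460 nm) gave IC50.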
# [3] = molecular target: T2, HDAC1 (Homo sapiens, UniProt Q13547); assay: HDAC1 inhibition, full IC50 measurement (Reaction Biology; fluorogenic p53 peptide RHKK(Ac)AMC); details: t1/t2 replicates
# T2 construct: purchased Reaction Biology Corporation (assay run by the CRO)
# T2 sequence (Q13547 whole entry): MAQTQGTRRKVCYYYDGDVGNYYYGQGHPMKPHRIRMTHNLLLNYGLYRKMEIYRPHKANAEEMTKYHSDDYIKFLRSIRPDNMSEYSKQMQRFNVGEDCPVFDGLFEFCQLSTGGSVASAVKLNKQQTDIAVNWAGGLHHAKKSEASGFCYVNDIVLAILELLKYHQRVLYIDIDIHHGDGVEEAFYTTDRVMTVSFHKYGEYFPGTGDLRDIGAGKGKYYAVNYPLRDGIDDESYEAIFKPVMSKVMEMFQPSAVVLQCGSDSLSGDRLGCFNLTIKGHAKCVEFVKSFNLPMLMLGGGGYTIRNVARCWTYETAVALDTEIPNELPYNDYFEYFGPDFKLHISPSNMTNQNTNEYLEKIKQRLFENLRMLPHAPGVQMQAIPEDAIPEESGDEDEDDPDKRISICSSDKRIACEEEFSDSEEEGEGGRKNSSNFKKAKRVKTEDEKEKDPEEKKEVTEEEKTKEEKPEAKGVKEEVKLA
# Method in brief: as §1
# [4] = molecular target: T3, HDAC8 (Homo sapiens, UniProt Q9BY41); assay: HDAC8 inhibition, full IC50 measurement (Reaction Biology; fluorogenic p53 peptide RHKK(Ac)AMC); details: t1/t2 replicates
# T3 construct: purchased Reaction Biology Corporation (assay run by the CRO)
# T3 sequence (Q9BY41 1-377): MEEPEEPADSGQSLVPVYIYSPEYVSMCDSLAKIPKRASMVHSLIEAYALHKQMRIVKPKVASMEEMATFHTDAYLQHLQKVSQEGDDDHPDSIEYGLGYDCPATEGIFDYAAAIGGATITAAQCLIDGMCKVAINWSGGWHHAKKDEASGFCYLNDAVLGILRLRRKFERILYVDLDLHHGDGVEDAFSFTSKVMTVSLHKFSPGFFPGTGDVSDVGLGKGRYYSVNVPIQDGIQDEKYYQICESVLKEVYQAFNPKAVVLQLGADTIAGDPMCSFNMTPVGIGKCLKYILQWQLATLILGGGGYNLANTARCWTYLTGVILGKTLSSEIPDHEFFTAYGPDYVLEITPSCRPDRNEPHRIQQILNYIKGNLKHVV
# Method in brief: as §1
# [5] = peptide conc. 1.00E-05 M, listed as des4.1.0_t1
# [6] = peptide conc. 1.00E-05 M, listed as des4.1.0_t2
# [7] = peptide conc. 1.11E-06 M, listed as des4.1.0_t1
# [8] = peptide conc. 1.11E-06 M, listed as des4.1.0_t2
# [9] = peptide conc. 1.23E-07 M, listed as des4.1.0_t1
# [10] = peptide conc. 1.23E-07 M, listed as des4.1.0_t2
# [11] = peptide conc. 1.37E-08 M, listed as des4.1.0_t1
# [12] = peptide conc. 1.37E-08 M, listed as des4.1.0_t2
# [13] = peptide conc. 1.52E-09 M, listed as des4.1.0_t1
# [14] = peptide conc. 1.52E-09 M, listed as des4.1.0_t2
# [15] = peptide conc. 3.33E-06 M, listed as des4.1.0_t1
# [16] = peptide conc. 3.33E-06 M, listed as des4.1.0_t2
# [17] = peptide conc. 3.70E-07 M, listed as des4.1.0_t1
# [18] = peptide conc. 3.70E-07 M, listed as des4.1.0_t2
# [19] = peptide conc. 4.12E-08 M, listed as des4.1.0_t1
# [20] = peptide conc. 4.12E-08 M, listed as des4.1.0_t2
# [21] = peptide conc. 4.57E-09 M, listed as des4.1.0_t1
# [22] = peptide conc. 4.57E-09 M, listed as des4.1.0_t2
# [23] = peptide conc. 5.08E-10 M, listed as des4.1.0_t1
# [24] = peptide conc. 5.08E-10 M, listed as des4.1.0_t2
structure (smiles),measurement,setting,value
"N=C(N)NCCC[C@@H]1NC(=O)[C@H](Cc2c[nH]c3ccccc23)NC(=O)[C@H](CC(=O)O)NC(=O)[C@@H](CO)NC(=O)[C@H](Cc2c[nH]c3ccccc23)NC(=O)[C@H](CCCCCS)NC(=O)[C@H](CCC(N)=O)NC1=O [des4.1.0, SHA-Trp-dSer-Asp-Trp-Arg-Gln] (HELM PEPTIDE1{D.W.R.Q.[O=C([C@H](CCCCCS)N[*:1])[*:2]].W.[dS]}$PEPTIDE1,PEPTIDE1,1:R1-7:R2$$$V2.0)",IC50,[1],100 nM
same,HDAC2 activity raw data (signal),"[2]; Conc. 1.00E-05 M, t1",-10519
same,HDAC2 activity raw data (signal),"[2]; Conc. 1.00E-05 M, t2",-26565
same,HDAC2 activity raw data (signal),"[2]; Conc. 1.11E-06 M, t1",79842
same,HDAC2 activity raw data (signal),"[2]; Conc. 1.11E-06 M, t2",48499
same,HDAC2 activity raw data (signal),"[2]; Conc. 1.23E-07 M, t1",872533
same,HDAC2 activity raw data (signal),"[2]; Conc. 1.23E-07 M, t2",734242
same,HDAC2 activity raw data (signal),"[2]; Conc. 1.37E-08 M, t1",1715554
same,HDAC2 activity raw data (signal),"[2]; Conc. 1.37E-08 M, t2",1674658
same,HDAC2 activity raw data (signal),"[2]; Conc. 1.52E-09 M, t1",1955635
same,HDAC2 activity raw data (signal),"[2]; Conc. 1.52E-09 M, t2",1838943
same,HDAC2 activity raw data (signal),"[2]; Conc. 3.33E-06 M, t1",20013
same,HDAC2 activity raw data (signal),"[2]; Conc. 3.33E-06 M, t2",16353
same,HDAC2 activity raw data (signal),"[2]; Conc. 3.70E-07 M, t1",220224
same,HDAC2 activity raw data (signal),"[2]; Conc. 3.70E-07 M, t2",182542
same,HDAC2 activity raw data (signal),"[2]; Conc. 4.12E-08 M, t1",1421192
same,HDAC2 activity raw data (signal),"[2]; Conc. 4.12E-08 M, t2",1355422
same,HDAC2 activity raw data (signal),"[2]; Conc. 4.57E-09 M, t1",1969255
same,HDAC2 activity raw data (signal),"[2]; Conc. 4.57E-09 M, t2",1793366
same,HDAC2 activity raw data (signal),"[2]; Conc. 5.08E-10 M, t1",1865278
same,HDAC2 activity raw data (signal),"[2]; Conc. 5.08E-10 M, t2",1807628
same,HDAC1 activity raw data (signal),[3]; [5],765
same,HDAC1 activity raw data (signal),[3]; [6],43
same,HDAC1 activity raw data (signal),[3]; [7],72647
same,HDAC1 activity raw data (signal),[3]; [8],40074
same,HDAC1 activity raw data (signal),[3]; [9],531723
same,HDAC1 activity raw data (signal),[3]; [10],406309
same,HDAC1 activity raw data (signal),[3]; [11],925044
same,HDAC1 activity raw data (signal),[3]; [12],865901
same,HDAC1 activity raw data (signal),[3]; [13],1099796
same,HDAC1 activity raw data (signal),[3]; [14],1072226
same,HDAC1 activity raw data (signal),[3]; [15],17702
same,HDAC1 activity raw data (signal),[3]; [16],11850
same,HDAC1 activity raw data (signal),[3]; [17],193534
same,HDAC1 activity raw data (signal),[3]; [18],155666
same,HDAC1 activity raw data (signal),[3]; [19],733473
same,HDAC1 activity raw data (signal),[3]; [20],658176
same,HDAC1 activity raw data (signal),[3]; [21],1015864
same,HDAC1 activity raw data (signal),[3]; [22],988230
same,HDAC1 activity raw data (signal),[3]; [23],1225387
same,HDAC1 activity raw data (signal),[3]; [24],1041994
same,HDAC8 activity raw data (signal),[4]; [5],100967
same,HDAC8 activity raw data (signal),[4]; [6],38752
same,HDAC8 activity raw data (signal),[4]; [7],234716
same,HDAC8 activity raw data (signal),[4]; [8],226734
same,HDAC8 activity raw data (signal),[4]; [9],803512
same,HDAC8 activity raw data (signal),[4]; [10],713240
same,HDAC8 activity raw data (signal),[4]; [11],943537
same,HDAC8 activity raw data (signal),[4]; [12],964221
same,HDAC8 activity raw data (signal),[4]; [13],948817
same,HDAC8 activity raw data (signal),[4]; [14],953073
same,HDAC8 activity raw data (signal),[4]; [15],100659
same,HDAC8 activity raw data (signal),[4]; [16],171679
same,HDAC8 activity raw data (signal),[4]; [17],597298
same,HDAC8 activity raw data (signal),[4]; [18],553055
same,HDAC8 activity raw data (signal),[4]; [19],940975
same,HDAC8 activity raw data (signal),[4]; [20],825924
same,HDAC8 activity raw data (signal),[4]; [21],958670
same,HDAC8 activity raw data (signal),[4]; [22],869070
same,HDAC8 activity raw data (signal),[4]; [23],1026116
same,HDAC8 activity raw data (signal),[4]; [24],927553
